For the test, the target named is full length MPS1 (Homo sapiens (Human), UniProt P33981). Kind of test: Measurement of inhibition of MPS1 kinase (Caliper EZ reader, fluorescent labelled peptide H236). The conditions noted are these: full length MPS1 12.5 nM or 3 nM, peptide H236 5 μM, ATP 10 μM, 60 min at room temperature. Format: biochemical. The protocol:
The reaction was carried out for 60 min at room temperature and stopped by the addition of buffer (10 μl) containing 20 mM EDTA, 0.05% (v/v) Brij-35, in 0.1M HEPES-buffered saline (Free acid, Sigma, UK). The plate was read on a Caliper EZ reader II (Caliper Life Sciences).
The reader provides a Software package (‘Reviewer’) which converts the peak heights into % conversion by measuring both product and substrate peak and also allows selection of control well which represent 0% and 100% inhibition respectively. The % inhibition of the compounds is calculated relative to the means of selected control wells. IC50s are determined by testing the compounds at a range of concentrations from 0.25 nM-100 μM. The % inhibitions at each concentration are then fitted to a 4 parameter logistic fit: y=(a+((b−a)/(1+((c/x^d)))) where a=asym min, b=asym max, c=IC50 and d=hill coefficient

For orientation: IC50 means the concentration needed to halve the response being measured. A high value points to a need for much substance.

full length MPS1, sequence (P33981 whole entry): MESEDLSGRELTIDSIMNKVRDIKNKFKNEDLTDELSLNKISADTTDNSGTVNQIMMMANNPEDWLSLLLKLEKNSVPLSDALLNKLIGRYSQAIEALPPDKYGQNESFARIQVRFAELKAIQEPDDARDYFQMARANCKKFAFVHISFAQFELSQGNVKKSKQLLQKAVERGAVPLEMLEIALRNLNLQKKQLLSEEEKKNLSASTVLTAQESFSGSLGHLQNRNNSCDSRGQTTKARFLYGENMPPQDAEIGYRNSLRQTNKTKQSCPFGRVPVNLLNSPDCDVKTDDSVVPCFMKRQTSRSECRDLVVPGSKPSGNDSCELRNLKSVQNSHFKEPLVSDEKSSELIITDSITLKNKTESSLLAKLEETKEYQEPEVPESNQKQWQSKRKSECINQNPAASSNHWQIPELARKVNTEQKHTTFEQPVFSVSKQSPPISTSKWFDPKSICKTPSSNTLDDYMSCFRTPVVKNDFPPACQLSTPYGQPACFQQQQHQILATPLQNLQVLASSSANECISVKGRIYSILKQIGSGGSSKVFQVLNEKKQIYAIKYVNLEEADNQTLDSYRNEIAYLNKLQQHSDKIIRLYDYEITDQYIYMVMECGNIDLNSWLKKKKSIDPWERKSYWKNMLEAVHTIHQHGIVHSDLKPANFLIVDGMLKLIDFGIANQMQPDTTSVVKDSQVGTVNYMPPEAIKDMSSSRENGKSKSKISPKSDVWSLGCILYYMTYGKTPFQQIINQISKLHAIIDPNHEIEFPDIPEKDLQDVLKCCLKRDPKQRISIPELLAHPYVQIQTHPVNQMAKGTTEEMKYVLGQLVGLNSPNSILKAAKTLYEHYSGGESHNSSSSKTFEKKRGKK

`COc1cc(-c2cnc(C)n2C)ccc1Nc1cc2cc(-c3cnn(CC(C)O)c3)ccc2cn1` (racemic) [Example 38, 1-(4-(3-((4-(1,2-Dimethyl-1H-imidazol-5-yl)-2-methoxyphenyl)amino)isoquinolin-6-yl)-1H-pyrazol-1-yl)propan-2-ol] came in with an IC50 of 2 nM. `COc1cc(-c2cnc(C)n2C)ccc1Nc1cc2cc(-c3cnn(CC4COC(C)(C)O4)c3)ccc2cn1` (racemic) [Example 40, 6-(1-((2,2-Dimethyl-1,3-dioxolan-4-yl)methyl)-1H-pyrazol-4-yl)-N-(4-(1,2-dimethyl-1H-imidazol-5-yl)-2-methoxyphenyl)isoquinolin-3-amine] returned an IC50 of 6 nM. With `COc1cc(-c2cnc(C)n2C)ccc1Nc1cc2cc(-c3cnn(C(C)C(C)(C)O)c3)ccc2cn1` (racemic) [Example 68, 3-(4-(3-((4-(1,2-Dimelhyl-1H-imidazol-5-yl)-2-methoxyphenyl)amino)isoquinolin-6-yl)-1H-pyrazol-1-yl)-2-methylbutan-2-ol], the IC50 was determined as 6 nM.

In turn, `CCC(O)Cn1cc(-c2ccc3cnc(Nc4ccc(C(=O)N5CC(OC)C5)cc4OC)cc3c2)cn1` (racemic) [Example 71, (4-((6-(1-(2-Hydroxybutyl)-1H-pyrazol-4-yl)isoquinolin-3-yl)amino)-3-methoxyphenyl)(3-methoxyazetidin-1-yl)methanone] returned an IC50 of 4 nM. `COc1cc(C(=O)N2CC(OC)C2)ccc1Nc1cc2cc(-c3cnn(CC(O)C(C)C)c3)ccc2cn1` (racemic) [Example 73, (4-((6-(1-(2-Hydroxy-3-methylbutyl)-1H-pyrazol-4-yl)isoquinolin-3-yl)amino)-3-methoxy-phenyl)(3-methoxyazetidin-1-yl)methanone] gave an IC50 of 4 nM. In the case of `COc1cc(C(=O)N2CC(OC)C2)ccc1Nc1cc2cc(-c3cnn(CC(O)C(F)(F)F)c3)ccc2cn1` (racemic) [Example 75, (3-Methoxy-4-((6-(1-(3,3,3-trifluoro-2-hydroxypropyl)-1H-pyrazol-4-yl)isoquinolin-3-yl)amino)-phenyl)(3-methoxyazetidin-1-yl)methanone], half-maximal inhibition (IC50) required 3 nM. `COc1cc(C(=O)N2CC(OC)C2)ccc1Nc1cc2cc(-c3cnn(C(C)C(C)(C)O)c3)ccc2cn1` (racemic) [Example 76, (4-((6-(1-(3-Hydroxy-3-methylbutan-2-yl)-1H-pyrazol-4-yl)isoquinolin-3-yl)amino)-3-methoxyphenyl)(3-methoxyazetidin-1-yl)methanone] returned an IC50 of 5 nM. With `COCC(O)Cn1cc(-c2ccc3cnc(Nc4ccc(C(=O)N5CC(OC)C5)cc4OC)cc3c2)cn1` (racemic) [Example 78, (4-((6-(1-(2-Hydroxy-3-methoxypropyl)-1H-pyrazol-4-yl)isoquinolin-3-yl)amino)-3-methoxyphenyl)(3-methoxyazetidin-1-yl)methanone] the figure was 17 nM; with `COCC(Cn1cc(-c2ccc3cnc(Nc4ccc(C(=O)N5CC(OC)C5)cc4OC)cc3c2)cn1)OC` (racemic) [Example 79, (4-((6-(1-(2,3-Dimethoxypropyl)-1H-pyrazol-4-yl)isoquinolin-3-yl)amino)-3-methoxyphenyl)(3-methoxyazetidin-1-yl)methanone], 9 nM; with `COc1cc(C(=O)N2CC(OC)C2)ccc1Nc1cc2cc(-c3cnn(CC(O)CO)c3)ccc2cn1` (racemic) [Example 81, (4-((6-(1-(2,3-Dihydroxypropyl)-1H-pyrazol-4-yl)isoquinolin-3-yl)amino)-3-methoxyphenyl)(3-methoxyazetidin-1-yl)methanone], 3 nM. Regarding `COc1cc(C(=O)N2CC(OC)C2)ccc1Nc1cc2cc(-c3cnn(C4COCC4O)c3)ccc2cn1` (racemic) [Example 82, (4-((6-(1-(4-Hydroxytetrahydrofuran-3-yl)-1H-pyrazol-4-yl)isoquinolin-3-yl)amino)-3-methoxyphenyl)(3-methoxyazetidin-1-yl)methanone], the IC50 turned out to be 5 nM. With `COc1cc(C(=O)N2CC(OC)C2)ccc1Nc1cc2cc(-c3cnn(C4CCCCC4O)c3)ccc2cn1` (racemic) [Example 85, (4-((6-(1-(2-Hydroxycyclohexyl)-1H-pyrazol-4-yl)isoquinolin-3-yl)amino)-3-methoxyphenyl)(3-methoxyazetidin-1-yl)methanone] the figure was 15 nM. In the case of `COc1cc(-c2cnc(C)n2C)ccc1Nc1cc2cc(-c3cnn(CC(C)O)c3)ccc2cn1` (single isomer, unassigned) [Example 98, 1-(4-(3-((4-(1,2-dimethyl-1H-imidazol-5-yl)-2-methoxyphenyl)amino)isoquinolin-6-yl)-1H-pyrazol-1-yl)propan-2-ol], the IC50 turned out to be 3 nM. For `COc1cc(-c2cnc(C)n2C)ccc1Nc1cc2cc(-c3cnn(CC(C)O)c3)ccc2cn1` (single isomer, unassigned) [Example 99, 1-(4-(3-((4-(1,2-dimethyl-1H-imidazol-5-yl)-2-methoxyphenyl)amino)isoquinolin-6-yl)-1H-pyrazol-1-yl)propan-2-ol], the half-inhibitory concentration (IC50) came to 5 nM. To `COc1cc(-c2cnc(C)n2C)ccc1Nc1cc2cc(-c3cnn(CC4CCOCC4)c3)ccc2cn1` [Example 1, N-(4-(1,2-dimethyl-1H-imidazol-5-yl)-2-methoxyphenyl)-6-(1-((tetrahydro-2H-pyran-4-yl)methyl)-1H-pyrazol-4-yl)isoquinolin-3-amine] belongs 2 nM; to `COc1cc(-c2cnc(C)n2C)ccc1Nc1cc2cc(-c3cnn(CC4CC4)c3)ccc2cn1` [Example 2, 6-(1-(Cyclopropylmethyl)-1H-pyrazol-4-yl)-N-(4-(1,2-dimethyl-1H-imidazol-5-yl)-2-methoxyphenyl)isoquinolin-3-amine], 1 nM; to `COc1cc(-c2cnc(C)n2C)ccc1Nc1cc2cc(-c3cnn(CC(F)F)c3)ccc2cn1` [Example 3, 6-(1-(2,2-Difluoroethyl)-1H-pyrazol-4-yl)-N-(4-(1,2-dimethyl-1H-imidazol-5-yl)-2-methoxyphenyl)isoquinolin-3-amine], 2 nM.

Turning to `COc1cc(-c2cnc(C)n2C)ccc1Nc1cc2cc(-c3cnn(C4CCN(C(=O)OC(C)(C)C)CC4)c3)ccc2cn1` [Example 4, tert-Butyl 4-(4-(3-((4-(1,2-dimethyl-1H-imidazol-5-yl)-2-methoxyphenyl)amino)isoquinolin-6-yl)-1H-pyrazol-1-yl)piperidine-1-carboxylate], the concentration for half-maximal inhibition (IC50) was determined as 110 nM. With `COc1cc(-c2cnc(C)n2C)ccc1Nc1cc2cc(-c3cnc(C)n3C)ccc2cn1` [Example 5, 6-(1,2-Dimethyl-1H-imidazol-5-yl)-N-(4-(1,2-dimethyl-1H-imidazol-5-yl)-2-methoxyphenyl)-isoquinolin-3-amine] the figure was 5 nM; with `COc1cc(-c2cnc(C)n2C)ccc1Nc1cc2cc(-c3cnco3)ccc2cn1` [Example 6, N-(4-(1,2-dimethyl-1H-imidazol-5-yl)-2-methoxyphenyl)-6-(oxazol-5-yl)isoquinolin-3-amine], 4 nM; with `COc1cc(-c2cnc(C)n2C)ccc1Nc1cc2cc(-c3ccncc3)ccc2cn1` [Example 7, N-(4-(1,2-dimethyl-1H-imidazol-5-yl)-2-methoxyphenyl)-6-(pyridin-4-yl)isoquinolin-3-amine], 145 nM. With `COc1cc(-c2cnc(C)n2C)ccc1Nc1cc2cc(-c3ccc(N(C)C)nc3)ccc2cn1` [Example 8, N-(4-(1,2 dimethyl-1H-imidazol-5-yl)-2-methoxyphenyl)-6-(6-(dimethylamino)pyridin-3-yl)isoquinolin-3-amine] the figure was 108 nM; with `COc1cc(-c2cnc(C)n2C)ccc1Nc1cc2cc(-c3cncs3)ccc2cn1` [Example 9, N-(4-(1,2-dimethyl-1H-imidazol-5-yl)-2-methoxyphenyl)-6-(thiazol-5-yl)isoquinolin-3-amine], 4 nM; with `CCn1cc(-c2ccc3cnc(Nc4ccc(-c5cnc(C)n5C)cc4OC)cc3c2)cn1` [Example 10, N-(4-(1,2-dimethyl-1H-imidazol-5-yl)-2-methoxyphenyl)-6-(1-ethyl-1H-pyrazol-4-yl)isoquinolin-3-amine], 7 nM. To `COc1cc(-c2cnc(C)n2C)ccc1Nc1cc2cc(-c3ccc(C)nc3)ccc2cn1` [Example 11, N-(4-(1,2-dimethyl-1H-imidazol-5-yl)-2-methoxyphenyl)-6-(6-methylpyridin-3-yl)isoquinolin-3-amine] belongs 2 nM; to `COc1cc(-c2cnc(C)n2C)ccc1Nc1cc2cc(-c3ccc(N(C)C(=O)OC(C)(C)C)nc3)ccc2cn1` [Example 12, tert-Butyl (5-(3-((4-(1,2-dimethyl-1H-imidazol-5-yl)-2-methoxyphenyl)amino)isoquinolin-6-yl)pyridin-2-yl)(methyl)carbamate], 713 nM; to `COc1cc(-c2cnc(C)n2C)ccc1Nc1cc2cc(-c3sc(C)nc3C)ccc2cn1` [Example 13, N-(4-(1,2-dimethyl-1H-imidazol-5-yl)-2-methoxyphenyl)-6-(2,4-dimethylthiazol-5-yl)isoquinolin-3-amine], 97 nM. Consider `COCCn1cc(-c2ccc3cnc(Nc4ccc(-c5cnc(C)n5C)cc4OC)cc3c2)cn1` [Example 14, N-(4-(1,2-dimethyl-1H-imidazol-5-yl)-2-methoxyphenyl)-6-(1-(2-methoxyethyl)-1H-pyrazol-4-yl)isoquinolin-3-amine], for which the midpoint of inhibition, the IC50, lay at 20 nM.

Regarding `COc1cc(-c2cnc(C)n2C)ccc1Nc1cc2cc(-c3cnn(C(C)C)c3)ccc2cn1` [Example 15, N-(4-(1,2-dimethyl-1H-imidazol-5-yl)-2-methoxyphenyl)-6-(1-isopropyl-1H-pyrazol-4-yl)isoquinolin-3-amine], inhibition was half-maximal at 3 nM (IC50).

The values are drawn from US9334286B2, “Pharmacologically active compounds” (Cancer Research Technology Limited, priority 2012, dated 2016).
